Test results taken from patent US9187464B2, “TRPV4 antagonists” (GlaxoSmithKline Intellectual Property (No. 2) Limited, priority 2011, dated 2015).
Counter-ions that a name gives are not always drawn.

The molecules below were run against T1, human TRPV4 (Homo sapiens, UniProt Q9HBA0) (assay: Ligand-gated assay (Fluo4 calcium, FLIPR; inhibition of agonist-induced activation)). Details: HEK-293-MSR-II cells transduced with BacMam human TRPV4; agonist at EC80.
T1 construct: expressed in transfected cells; host or cells: HEK-293-MSR-II cells transduced with 1% BacMam virus
Format: cell-based
Summary of the method: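 Agonist (EC80) response read on FLIPR as Fluo-4 (2 uM) fluorescence after 10-min room-temperature compound exposure in HBSS/HEPES pH 7.4 with 0.01% Chaps. Cells: HEK-293-MSR-II expressing human TRPV4 via BacMam; output is IC50 of inhibition.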

T1 sequence (Q9HBA0 whole entry): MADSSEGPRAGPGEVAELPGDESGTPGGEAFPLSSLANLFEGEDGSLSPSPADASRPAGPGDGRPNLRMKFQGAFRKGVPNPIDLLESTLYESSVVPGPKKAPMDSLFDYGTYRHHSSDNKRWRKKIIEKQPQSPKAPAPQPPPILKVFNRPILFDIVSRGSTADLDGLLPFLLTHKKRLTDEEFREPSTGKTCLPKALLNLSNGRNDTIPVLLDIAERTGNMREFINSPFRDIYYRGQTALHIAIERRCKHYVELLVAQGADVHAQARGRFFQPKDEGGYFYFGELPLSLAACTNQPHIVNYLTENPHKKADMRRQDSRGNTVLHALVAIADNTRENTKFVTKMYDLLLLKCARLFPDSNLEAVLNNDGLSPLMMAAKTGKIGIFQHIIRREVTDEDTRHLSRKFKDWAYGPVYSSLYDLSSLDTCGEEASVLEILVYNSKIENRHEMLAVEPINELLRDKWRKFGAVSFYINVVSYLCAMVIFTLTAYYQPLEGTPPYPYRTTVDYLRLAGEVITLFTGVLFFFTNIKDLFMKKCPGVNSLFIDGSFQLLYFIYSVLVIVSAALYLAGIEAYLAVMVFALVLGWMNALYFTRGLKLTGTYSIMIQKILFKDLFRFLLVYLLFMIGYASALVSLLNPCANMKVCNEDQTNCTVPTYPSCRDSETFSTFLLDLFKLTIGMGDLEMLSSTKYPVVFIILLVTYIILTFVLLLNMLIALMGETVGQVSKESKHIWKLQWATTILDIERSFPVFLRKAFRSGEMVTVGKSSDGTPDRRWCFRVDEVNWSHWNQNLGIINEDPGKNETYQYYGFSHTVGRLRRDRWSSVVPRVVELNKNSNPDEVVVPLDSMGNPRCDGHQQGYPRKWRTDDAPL

SMILES	IC50 [nM]
N#Cc1ccc2ncn(C[C@H]3CCC[C@]4(C3)CN(Cc3cncc(-c5ccccc5)c3)C(=O)O4)c2c1 [Example 72, 1-({(5S,7S)-2-oxo-3-[(5-phenyl-3-pyridinyl)methyl]-1-oxa-3-azaspiro[4.5]dec-7-yl}methyl)-1H-benzimidazole-6-carbonitrile trifluoroacetate]	50 to 500
Cn1nc(CN2C[C@@]3(CCC[C@H](Cn4cnc5ccc(C#N)cc54)C3)OC2=O)cc1-c1ccccc1 [Example 69, 1-({(5S,7S)-3-[(1-methyl-5-phenyl-1H-pyrazol-3-yl)methyl]-2-oxo-1-oxa-3-azaspiro[4.5]dec-7-yl}methyl)-1H-benzimidazole-6-carbonitrile]	50 to 500
CCOC(C)c1noc(C(C)(C)CN2C[C@@]3(CCC[C@H](Cn4cnc5ccc(C#N)cc54)C3)OC2=O)n1 (stereo partly drawn) [Example 28, 1-{[(5S,7S)-3-(2-{3-[1-(Ethyloxy)ethyl]-1,2,4-oxadiazol-5-yl}-2-methylpropyl)-2-oxo-1-oxa-3-azaspiro[4.5]dec-7-yl]methyl}-1H-benzimidazole-6-carbonitrile]	0.1 to 10
COc1ccc(N2C[C@@]3(CCC[C@](C)(Cn4cnc5ccc(C#N)cc54)C3)OC2=O)cn1 [Example 13]	0.1 to 10
CC(C)(C)c1ncc(N2C[C@@]3(CCC[C@](C)(Cn4cnc5ccc(C#N)cc54)C3)OC2=O)cn1 [Example 134, 1-(((5S,7S)-3-(2-(tert-butyl)pyrimidin-5-yl)-7-methyl-2-oxo-1-oxa-3-azaspiro[4.5]decan-7-yl)methyl)-1H-benzo[d]imidazole-6-carbonitrile]	0.1 to 10
Cc1cc(Cl)ncc1N1C[C@@]2(CCC[C@](C)(Cn3cnc4ccc(C#N)cc43)C2)OC1=O [Example 119, 1-(((5S,7S)-3-(6-chloro-4-methylpyridin-3-yl)-7-methyl-2-oxo-1-oxa-3-azaspiro[4.5]decan-7-yl)methyl)-1H-benzo[d]imidazole-6-carbonitrile]	0.1 to 10
COc1ncccc1N1C[C@@]2(CCC[C@](C)(Cn3cnc4ccc(C#N)cc43)C2)OC1=O [Example 109, 1-[{(5S,7S)-7-methyl-3-[2-(methyloxy)-3-pyridinyl]-2-oxo-1-oxa-3-azaspiro[4.5]dec-7-yl}methyl]-1H-benzimidazole-6-carbonitrile]	50 to 500
COc1cc(Cl)ncc1N1C[C@@]2(CCC[C@](C)(Cn3cnc4ccc(C#N)cc43)C2)OC1=O [Example 122, 1-(((5S,7S)-3-(6-chloro-4-methoxypyridin-3-yl)-7-methyl-2-oxo-1-oxa-3-azaspiro[4.5]decan-7-yl)methyl)-1H-benzo[d]imidazole-6-carbonitrile]	0.1 to 10
CC(C)(C)c1coc(N2C[C@@]3(CCC[C@](C)(Cn4cnc5ccc(C#N)cc54)C3)OC2=O)n1 [Example 42, 1-(((5S,7S)-3-(4-(tert-butyl)oxazol-2-yl)-7-methyl-2-oxo-1-oxa-3-azaspiro[4.5]decan-7-yl)methyl)-1H-benzo[d]imidazole-6-carbonitrile]	10 to 50
N#Cc1cccc(-n2cc(CN3C[C@@]4(CCC[C@H](Cn5cnc6ccc(C#N)cc65)C4)OC3=O)nn2)c1 [Example 92, 1-[((5S,7S)-3-{[1-(3-cyanophenyl)-1H-1,2,3-triazol-4-yl]methyl}-2-oxo-1-oxa-3-azaspiro[4.5]dec-7-yl)methyl]-1H-benzimidazole-6-carbonitrile]	10 to 50
COc1ccc(N2C[C@@]3(CCC[C@](C)(Cn4cnc5ccc(C#N)cc54)C3)OC2=O)nc1 [Example 135, 1-({(5S,7S)-7-methyl-3-[5-(methyloxy)-2-pyridinyl]-2-oxo-1-oxa-3-azaspiro[4.5]dec-7-yl}methyl)-1H-benzimidazole-6-carbonitrile]	50 to 500
N#Cc1ccc2ncn(C[C@H]3CCC[C@]4(C3)CN(Cc3cccc(-c5ccccc5)n3)C(=O)O4)c2c1 [Example 64, 1-({(5S,7S)-2-oxo-3-[(6-phenyl-2-pyridinyl)methyl]-1-oxa-3-azaspiro[4.5]dec-7-yl}methyl)-1H-benzimidazole-6-carbonitrile]	0.1 to 10
CC(C)(O)c1ncc(N2C[C@@]3(CCC[C@](C)(Cn4cnc5ccc(C#N)cc54)C3)OC2=O)cn1 [Example 148, 1-(((5S,7S)-3-(2-(2-hydroxypropan-2-yl)pyrimidin-5-yl)-7-methyl-2-oxo-1-oxa-3-azaspiro[4.5]decan-7-yl)methyl)-1H-benzo[d]imidazole-6-carbonitrile]	10 to 50
CC(C)(C)c1ncc(N2C[C@@]3(CCC[C@H](Cn4cnc5ccc(C#N)cc54)C3)OC2=O)cn1 [Example 116, 1-(((5S,7S)-3-(2-(tert-butyl)pyrimidin-5-yl)-2-oxo-1-oxa-3-azaspiro[4.5]decan-7-yl)methyl)-1H-benzo[d]imidazole-6-carbonitrile]	10 to 50
CC(C)(C)c1cc(N2C[C@@]3(CCC[C@](C)(Cn4cnc5ccc(C#N)cc54)C3)OC2=O)on1 [Example 1, 1-({(5S,7S)-3-[3-(1,1-Dimethylethyl)-5-isoxazolyl]-7-methyl-2-oxo-1-oxa-3-azaspiro[4.5]dec-7-yl}methyl)-1H-benzimidazole-6-carbonitrile]	10 to 50
COc1nc(C)ccc1N1C[C@@]2(CCC[C@](C)(Cn3cnc4ccc(C#N)cc43)C2)OC1=O [Example 126, 1-(((5S,7S)-3-(2-methoxy-6-methylpyridin-3-yl)-7-methyl-2-oxo-1-oxa-3-azaspiro[4.5]decan-7-yl)methyl)-1H-benzo[d]imidazole-6-carbonitrile]	0.1 to 10
Cc1c(C(C)(C)C)noc1N1C[C@@]2(CCC[C@H](Cn3cnc4ccc(C#N)cc43)C2)OC1=O [Example 46, 1-(((5S,7S)-3-(3-(tert-butyl)-4-methylisoxazol-5-yl)-2-oxo-1-oxa-3-azaspiro[4.5]decan-7-yl)methyl)-1H-benzo[d]imidazole-6-carbonitrile]	0.1 to 10
CC(F)(F)c1cc(N2C[C@@]3(CCC[C@](C)(Cn4cnc5ccc(C#N)cc54)C3)OC2=O)on1 [Example 45, 1-(((5S,7S)-3-(3-(1,1-difluoroethyl)isoxazol-5-yl)-7-methyl-2-oxo-1-oxa-3-azaspiro[4.5]decan-7-yl)methyl)-1H-benzo[d]imidazole-6-carbonitrile]	0.1 to 10
Cc1noc(N2C[C@@]3(CCC[C@](C)(Cn4cnc5ccc(C#N)cc54)C3)OC2=O)c1C [Example 57, 1-(((5S,7S)-3-(3,4-Dimethylisoxazol-5-yl)-7-methyl-2-oxo-1-oxa-3-azaspiro[4.5]decan-7-yl)methyl)-1H-benzo[d]imidazole-6-carbonitrile]	0.1 to 10
C[C@]1(Cn2cnc3ccc(C#N)cc32)CCC[C@@]2(CN(c3cnc(C(F)(F)F)nc3)C(=O)O2)C1 [Example 25, 1-(((5S,7S)-7-Methyl-2-oxo-3-(2-(trifluoromethyl)pyrimidin-5-yl)-1-oxa-3-azaspiro[4.5]decan-7-yl)methyl)-1H-benzo[d]imidazole-6-carbonitrile]	0.1 to 10
N#Cc1cc(F)cc(-n2cc(CN3CC4(CCC[C@H](Cn5cnc6ccc(C#N)cc65)C4)OC3=O)nn2)c1 (stereo in doubt) [Example 103, 1-[((5S,7S)-3-{[1-(3-cyano-5-fluorophenyl)-1H-1,2,3-triazol-4-yl]methyl}-2-oxo-1-oxa-3-azaspiro[4.5]dec-7-yl)methyl]-1H-benzimidazole-6-carbonitrile]	0.1 to 10
CCc1noc(C(C)(C)CN2C[C@@]3(CCC[C@H](Cn4cnc5ccc(C#N)cc54)C3)OC2=O)n1 [Example 6, 1-({(5S,7S)-3-[2-(3-Ethyl-1,2,4-oxadiazol-5-yl)-2-methylpropyl]-2-oxo-1-oxa-3-azaspiro[4.5]dec-7-yl}methyl)-1H-benzimidazole-6-carbonitrile]	0.1 to 10
COc1ccc(N2C[C@@]3(CCC[C@](C)(Cn4cnc5ccc(C#N)cc54)C3)OC2=O)c(OC)n1 [Example 110, 1-({(5S,7S)-3-[2,6-bis(methyloxy)-3-pyridinyl]-7-methyl-2-oxo-1-oxa-3-azaspiro[4.5]dec-7-yl}methyl)-1H-benzimidazole-6-carbonitrile]	0.1 to 10
C[C@]1(Cn2cnc3ccc(C#N)cc32)CCC[C@]2(CN(Cc3cn(-c4ccccc4)nn3)C(=O)O2)C1 [Example 105, 1-({(5R,7S)-7-methyl-2-oxo-3-[(1-phenyl-1H-1,2,3-triazol-4-yl)methyl]-1-oxa-3-azaspiro[4.5]dec-7-yl}methyl)-1H benzimidazole-6-carbonitrile]	10 to 50
N#Cc1ccc2ncn(C[C@H]3CCC[C@]4(C3)CN(Cc3cn(-c5cccc(C(F)(F)F)c5)nn3)C(=O)O4)c2c1 [Example 93, 1-{[(5S,7S)-2-oxo-3-({1-[3-(trifluoromethyl)phenyl]-1H-1,2,3-triazol-4-yl}methyl)-1-oxa-3-azaspiro[4.5]dec-7-yl]methyl}-1H-benzimidazole-6-carbonitrile]	0.1 to 10
CC(C)(CO)c1cc(N2C[C@@]3(CCC[C@](C)(Cn4cnc5ccc(C#N)cc54)C3)OC2=O)on1 [Example 21, 1-(((5S,7S)-3-(3-(1-Hydroxy-2-methylpropan-2-yl)isoxazol-5-yl)-7-methyl-2-oxo-1-oxa-3-azaspiro[4.5]decan-7-yl)methyl)-1H-benzo[d]imidazole-6-carbonitrile]	50 to 500
CC(C)Cc1cc(N2C[C@@]3(CCC[C@](C)(Cn4cnc5ccc(C#N)cc54)C3)OC2=O)on1 [Example 31, 1-({(5S,7S)-7-methyl-3-[3-(2-methylpropyl)-5-isoxazolyl]-2-oxo-1-oxa-3-azaspiro[4.5]dec-7-yl}methyl)-1H-benzimidazole-6-carbonitrile]	0.1 to 10
CC(C)(C)c1cc(N2C[C@@]3(CCC[C@](C)(Cn4cnc5ccc(C#N)cc54)C3)OC2=O)no1 [Example 3, 1-({(5S,7S)-3-[5-(1,1-Dimethylethyl)-3-isoxazolyl]-7-methyl-2-oxo-1-oxa-3-azaspiro[4.5]dec-7-yl}methyl)-1H-benzimidazole-6-carbonitrile]	0.1 to 10
